Reference: paper PMC9981206 (Cancer Research Communications, 2022)
Values joined by “and” are separate entries in the source; they are usually repeats but may differ in a detail not shown here. Identical values can stand only once. Like-named read-outs stand apart in the source and are kept apart here.

Tests used:
[1] = test system: OVCAR-4 cells; test: MTS colorimetric cell growth assay, OVCAR-4; type: cell-based, human
Excerpt: (§1) The cell cultures were kept below 20 passages (∼10 weeks) and routinely monitored (upon thawing and monthly) for Mycoplasma infections with MycoAlert Mycoplasma Detection Kit (Lonza). All cell lines were authenticated by short tandem repeat profiling to confirm their identity (Eurofins). TNKS1/2 and PARP1 biochemical assays ([27, 32]), luciferase-based WNT/β-catenin signaling pathway reporter assay ([22, 27, 32]), anti-proliferative assays, and NCI-60 tumor cell line panel screen ([7]), immunoblot analyses ([7, 32, 39]), RNA isolation, and real-time qRT-PCR ([7, 27, 39, 40]) were performed as previously described.
(§2) Prostate (Pro) and central nervous system (CNS). […] Mean ± SD values for data from one representative experiment of more than three repeated assays, each with six replicates, are shown. C, Evaluation of WNT/β-catenin signaling. Left, immunoblots of cytoplasmic AXIN1 and nuclear active form of β-catenin [non-phospho (Ser33/37/Thr41)] and total β-catenin. Lamin B1 loading controls are duplicated for OVCAR-4 immunoblots. Right, real-time RT-qPCR analysis of the WNT/β-catenin signaling target gene AXIN2. […] Immunoblots show representative data from two or more independent experiments. Actin (cytoplasm) and lamin B1 (nucleus) were used as loading controls. […]

[2] = Mouse pharmacokinetic analysis; type: in vivo; conditions: CD-1 mice; for MRT last: read-out: MRT(0-24); for CL/F: read-out: Cl or Cl/F (converted); for bioavailability: read-out: F (fraction absorbed/bioavailability)
Description: The pharmacokinetic analyses were performed according to the standard protocols of Medicilon as previously described ([22, 27, 32]). […] The same vehicle and oral–twice daily treatment regime were used for all other experiments. Samples were collected after 15 and 30 minutes plus 1, 2, 4, and 6 hours for group 1, and after 6.5, 8, 10, and 24 hours for group 2.

[3] = in vivo; type: in vivo, CB17-SCID mice; conditions: CB17-SCID, mouse, doses 0.33–10 mg/kg oral twice daily, 4 hours post last dosing, mass spectrometry
Description: (§3) The experiment using COLO 320DM (CCL-220, RRID: CVCL_0219, ATCC) xenografts was carried out as previously described ([40]) at Reaction Biology. […] Next, the mice were sacrificed, approximately 4 hours after first dose of the day. Protein and RNA extracts were prepared from four moderately sized tumors within each treatment group.

[4] = test system: COLO 320DM xenografts; test: in vivo; type: in vivo, CB17-SCID mice; conditions: for body weight changes: tumor-bearing CB17-SCID mice
Description: as §3

[5] = test system: B16-F10 tumors; test: B16-F10 mouse melanoma model
Description: The experiment using B16-F10 tumors was carried out as previously described ([39]) at Reaction Biology. […] Next, the mice were sacrificed, approximately 8 hours after last dosing. Protein and RNA extracts were prepared from 8 tumors within each treatment group.

[6] = 28-day oral repeated dose toxicity study; type: in vivo, mice
Description: Body weight and food consumption were measured thrice weekly. For the experiment using 10 mg/kg oral–twice daily dosing, blood was collected at the end of the experiment and hematologic and clinical biochemistry analyses were performed at IDEXX according to their standard protocols. Duodenum, jejunum, ileum, colon–rectum, lymph nodes, pancreas, heart, kidney, liver, spleen, lung, prostate, and testis were collected, formalin-fixed (10%), paraffin-embedded, stained with hematoxylin and eosin (H&E), and imaged as previously described ([39]). Staining of ileums using immunofluorescence was performed as previously described ([29, 39]). […] DAPI nuclear dye [(340 nm), 1 μg/μL, D9542, Sigma Aldrich] was added to the final washing solution. […] Imaging was performed using confocal microscopy as described previously ([39]). All animal experiments were approved by local animal experiment authorities (ethics committee of the Chinese Association for Laboratory Animal Sciences, German Centre for the Protection of Laboratory Animals, and Norwegian Food Safety Authority), and were carried out in compliance with FELASA guidelines and recommendations.

[7] = test system: YAP signaling; test: Immunoblot and real-time qRT-PCR, YAP signaling in cancer cell lines; type: cell-based, human; conditions: 10 nmol/L, 24 hours
Excerpt: as §1, §2

[8] = test system: WNT/β-catenin signaling; conditions: HEK293 cells, mean ± SD; read-out: WNT reporter IC50; cited from earlier work
[9] = test system: COLO 320DM colon carcinoma cells; conditions: cited from earlier work
[10] = mouse, plasma, 0.4 mg/kg IV BID
[11] = mouse, plasma, 100 mg/kg PO BID
[12] = 10 mg/kg oral twice daily, immunoblot
[13] = 10 mg/kg oral twice daily, 28 days, CD-1 mice
[14] = 10 mg/kg oral twice daily, 28 days, CD-1 mice, clinical biochemistry
[15] = 10 mg/kg oral twice daily, 28 days, CD-1 mice, hematology

With CCOc1ccc(-c2nnc([C@H]3C[C@H](NC(=O)c4cccc5nccnc45)C3)n2-c2ccccc2F)nc1 [OM-153] the GI50 ([1]; Homo sapiens, OVCAR-4, 120 h) was > 10 nM, the GI25 ([1]; OVCAR-4, 5 days) was 2.5 nM and the Cmax2 ([2]; 10 mg/kg PO BID) was 2,700 ng/mL. For the same compound, the “Cmax2 (plasma concentration after the second dose)” value ([2]; 10 mg/kg oral twice daily) was 5300 nM, the “plasma concentration after 24 hours” value ([2]; 10 mg/kg oral twice daily) was “below the detection threshold” and the Cmax2 ([2]; 100 mg/kg PO BID) was 20,000 ng/mL. The “Cmax2 (plasma concentration after the second dose)” value ([2]; 100 mg/kg oral twice daily) was 39200 nM, the half-life [2, 10] was 0.59 h and the MRT last [2, 10] was 3.6 h. The half-life ([2]; mouse, plasma, 2 mg/kg IV BID) was 0.56 h, the MRT last ([2]; mouse, plasma, 2 mg/kg IV BID) was 3.5 h and the half-life ([2]; mouse, plasma, 10 mg/kg PO BID) was 2.7 h. For the same compound, the CL/F ([2]; mouse, plasma, 10 mg/kg PO BID) was 16.7 mL/min/kg, the bioavailability ([2]; mouse, plasma, 10 mg/kg PO BID) was 100% and the MRT last ([2]; mouse, plasma, 10 mg/kg PO BID) was 5.8 h. It also gave a half-life [2, 11] of 5.9 h, a CL/F [2, 11] of 18.3 mL/min/kg and a bioavailability [2, 11] of 130%. For the same compound, the MRT last [2, 11] was 8.4 h, the concentration at 24 h ([2]; mouse, plasma, 100 mg/kg oral twice daily, read-out: plasma concentration after 24 hours) was 1900 ng/mL and 3.7 µM and the concentration at 4 h ([3]; plasma) was > 10 nM. For the same compound, the concentration at 4 h ([3]; tumor) was > 10 nM, the body weight changes ([4]; 10 mg/kg oral twice daily) was “no changes in body weights that would be suggestive for toxicity” and the body weight changes ([4]; 3.3 and 1 mg/kg oral twice daily) was “statistically significant body weight reductions”. The “β-catenin protein and WNT/β-catenin signaling target genes DKK1, APCDD1, NKD1 in tumors” value ([4]; immunoblot and real-time qRT-PCR, oral twice daily) was “dose-dependently reduced”, the “AXIN1 and AXIN2 proteins in the tumor specimen” value ([4]; immunoblot, oral twice daily) was “stabilized” and the “AXIN1 protein in tumors” value [5, 12] was “significant stabilization”. The β-catenin in tumors [5, 12] was “insignificant downregulation”, the “transcription of the target gene Axin2 in tumors” value ([5]; 10 mg/kg oral twice daily, real-time qRT-PCR) was “significantly decreased” and the “tumor end volume inhibition compared with the vehicle control” value ([5]; 0.1–10 mg/kg OM-153 oral twice daily in combination with anti–PD-1 (10 mg/kg i.p. day 6, 9, 12)) was 51%–65%. For the same compound, the body weights ([5]; any of the treatment groups, day 6 through 20) was “No alterations in body weights”, the “antitumor effect, monotherapy controls” value ([5]; monotherapy, 10 mg/kg) was “did not exert any significant antitumor effects” and the “clinical signs, body weight, food consumption” value [6, 13] was “no clinical signs, body weight loss, or reduced food consumption were observed”. For the same compound, the “histopathology of other organs” value [6, 13] was “No atypical histopathologic changes”, the overall intestinal architecture [6, 13] was “intact” and the “expression of the ISC marker and WNT/β-catenin signaling target gene Lgr5 in ileum” value ([6]; 10 mg/kg oral twice daily, 28 days, CD-1 mice, RNAscope) was “reduced”. For the same compound, the “AST, ALT and GLDH levels” value [6, 14] was “insignificant alteration”, the “magnesium, potassium, and triglycerides” value [6, 14] was “significant decreases” and the erythrocytes and hemoglobin [6, 15] was “moderate but significant reduction”. The leukocytes and reticulocytes [6, 15] was “tendency toward reduced”, the “histopathology of the other organs” value ([6]; 100 mg/kg oral twice daily, C57BL/6J mice) was “No abnormal histopathologic changes” and the small intestine histopathology ([6]; 100 mg/kg oral twice daily, C57BL/6J mice, 2 out of three mice) was “loss of villi height, width, crypt, and as well as surface epithelium, accompanied by inflammation”. The “clinical observation and body weight” value ([6]; 100 mg/kg oral twice daily, C57BL/6J mice, euthanized on day 7) was “reduced activity and body weight loss in 3 of 4 mice”, the kidney histopathology ([6]; 100 mg/kg oral twice daily, C57BL/6J mice, same mice as intestinal damage) was “signs of acute tubular damage in the kidney” and the “transcription of YAP signaling target genes AMOTL2, CCN1 and CCN2” value ([7]; all TNKSi-sensitive cell lines) was “reduced transcription”. The AMOTL2 protein ([7]; all cell lines) was “cytoplasmic stabilization”, the IC50 [8] was 0.63 nM and the “COLO320DM GI25” value ([9]; 5 days of cultivation) was 2.5 nM. For the same compound, the GI50 ([9]; 5 days of cultivation, read-out: COLO320DM GI50) was 10 nM and the “COLO 320DM in vitro GI50 value” ([9]; same value as 10 nmol/L) was 5.1 ng/mL.
